Measured values published in patent US20240424115A1, “LONG-ACTING INTERLEUKIN-15 RECEPTOR AGONISTS AND RELATED IMMUNOTHERAPEUTIC COMPOSITIONS AND METHODS” (Nektar Therapeutics, priority 2017, published 2024).
Entries after “also recorded” stand apart in the source; their conditions may differ.

Assays:
[1] = test system: CTLL-2 cells; assay: Potency assay based on STAT5 phosphorylation in CTLL-2 cells; type: cell-based, murine; settings: for EC50 (ng/mL) CTLL-2 pSTAT5: Table 2B
Experimental: In the phospho-STAT5 assay following receptor binding, downstream cell signaling can then activate Signal Transducer and Activator of Transcription 5 (STAT5) through phosphorylation to promote gene expression to induce cell proliferation. The activation of phosho-STAT5 is measured in CTLL-2 cells, a murine T lymphocyte cell line, using the phospho-STAT5/total STAT5 multiplexed assay (Meso Scale Discovery, MD) in response to sample and reference treatment for ˜10 minutes.
One day prior to the assay, CTLL-2 cells were split into fresh growth medium [RPMI 1640 supplemented with 10% FBS, 10% T-cell culture supplement (catalog #354115, Corning, Inc., Tewksbury, MA), 2 mM L-glutamate, and 1 mM sodium pyruvate]. On the day of assay, cells were pre-incubated in assay medium (RPMI 1640 supplemented with 1% FBS, 2 mM L-glutamate, and 1 mM sodium pyruvate) for at least four hours, and then plated in assay medium in a 96-well plate at 50,000 cells/well. Dilutions of the test article were prepared in an appropriate buffer immediately prior to assay. Stimulation of CTLL-2 cells was initiated by the transfer of 25X test article solutions to triplicate wells containing CTLL-2 cells. Plates were incubated at 37° C., 5% CO2 for 10 minutes, and the reaction was stopped by cell lysis. Detection of phospho-STAT5 and total STAT5 protein levels in cell lysates was performed using the MSD Phospho (Tyr694)/Total STATa,b Whole Cell Lysate Kit (Meso Scale Discovery, MD).

[2] = Single dose PK study in mice (plasma concentration)
Experimental: C57BL/6 mice (n=3/group) were administered a single intravenous dose of IL-15 (control) at 0.3 mg/kg) or of Conjugate 2 at a dose of 0.3 mg/kg. Following administration, blood samples were collected at various time points post administration (24 hours, 48 hours, 78 hours, 96 hours). […] Finally, at each time point, plasma concentration of drug was determined.
For PK analysis, Conjugate 1 was administered as a single intravenous dose at 0.3 mg/kg in balb/c mice (n=3). Following administration, mice were humanely sacrificed and plasma was collected 24, 48, 72, 96, 120 and 144 hours post treatment. From a separate study, mice were administered a single intravenous dose of IL-15 (0.5 mg/kg). Samples from these mice were collected at the indicated time points within 6 hours of treatment.
Balb/c mice (n=3/group) were administered a single intravenous dose of IL-15 (500 ug/kg) or of Conjugate 1 at 10, 30, 100, 300 and 1000 μg/kg. Blood samples were collected at the indicated time points post administration (conjugate 1:24, 48, 72, 96, 120, 144, 240 hours; IL-15 control: 0.03, 0.08, 0.25, 0.5, 1, 2, 4, 6, 8, hours) and plasma concentration of drug was determined.

[3] = test system: NK cells, CD8 T cells, CD4 T cells; assay: In vivo PD study in mice: lymphocyte cell numbers, proliferation and activation; design: species or system Balb/c mice
Description: NK cells and their proliferation were defined using CD45+CD3-CD49b+ and CD45+CD3-CD49b+Ki67+ marker combinations. Following dosing, blood samples were acquired on the Fortessa flow cytometer running FACS DIVA software. Flowjo software was used for analysis and NK cell absolute values and Ki67% positivity within NK cells were plotted using Prism.
In mouse, four different maturation states of NK cells are defined by CD27 and CD11b expression. Once NK marker (CD49b+), natural activating NK receptor (NKp46+) and IL-15/IL-2RB (CD122+) triple positive cells were identified, immature (CD11b−CD27−), early (CD11b−CD27+), high effector (CD11b+CD27+) and terminal effector (CD11b+CD27−) NK cells were quantified by flow cytometry.
NK cells in various maturation states were quantified in mice receiving a single dose, or after the third dose of a q7dx3 schedule, of Conjugate 1 at 0.01, 0.03, 0.1, 0.3, 1.0, and 1.5 mg/kg as described above. Using flow cytometry, the NK population of interest was identified by CD49b, NKp46 and CD122 positivity. CD11b and CD27 were then used to further differentiate the NK population in immature (CD11b-CD27−), early NK (CD11b−CD27+), high effector (CD11b+CD27+) and terminal effector (CD11b+CD27−) subpopulations. Peripheral blood was run on the Fortessa flow cytometer and absolute values for each population were determined using counting beads during sample acquisition using BD FACS DIVA software. Flow cytometric analysis was conducted using Flowjo software and data plotted in Prism.
The surface expression of NKG2D was conducted using flow cytometric analysis of anti-NKG2D signal, expressed as mean fluorescence intensity (MFI) in NK cells. Similarly, the level of intracellular granzyme B was conducted using flow cytometry-based detection of anti-Granzyme B signal, also expressed as MFI in NK cells. Following detection of NKG2D and granzyme B signal using the Fortessa flow cytometer and FACS Diva software, analysis was conducted using Flowjo software. MFI values were plotted using Prism. […] Dose-dependent increases in both NK activation markers was observed following a single dose of Conjugate 1.
In mouse, CD8 T cells were defined as CD45+CD3+CD4−CD8+. Blood and spleen from mice were subject to immunophenotyping using the Fortessa flow cytometer and with analysis using Flowjo software. Absolute CD8 cell counts were plotted in Prism as shown in FIG. 14 (blood) and FIG. 24 (spleen). FIG. 14 and FIG. 24 illustrate the ability of Conjugate 1 to induce proliferation and a sustained increase in numbers of CD8 T-cells following a single i.v. administration in mice at each of the dosage amounts described above. The impact is most notable for the medium (0.1mg/kg, 0.3 mg/kg) and high (1.0 mg/kg, 1.5 mg/kg) dosage amounts.
In mouse, CD8 effector memory (Tem) and CD8 central memory (TCM) T cells were identified as CD45+CD3+CD4−CD8+CD44+CD62− and CD45+CD3+CD4−CD8+CD44+CD62L+. Proliferation of these memory populations was conducted using Ki-67 positivity. Following a single dose of Conjugate 1 or IL-15, blood and spleen were subject to immunophenotyping using the Fortessa flow cytometer, DIVA acquisition software and Flowjo analysis software. Graphs were plotted in Prism. […] Both effector and central memory populations proliferate in response to administration of Conjugate 1, an exemplary long acting IL-15 agonist.
NK-cell Granzyme B expression as a function of time was measured following treatment with Conjugate 1 at doses of 0.01 mg/kg, 0.03 mg/kg, 0.1 mg/kg, 0.3 mg/kg, 1 mg/kg, and 1.5 mg/kg. Whole blood was collected from 24 to 240 hours post-dose for immunophenotyping. Once red blood cells were lysed, white blood cells were labeled with viability dye and markers specific for CD45, CD3 and CD49b to identify live NK cells. Cells were then simultaneously fixed and permeabilized for intracellular Granzyme B staining. Stained blood was run on a Fortessa flow cytometer, acquired by DIVA software and analyzed using Flowjo software. […]

[4] = balb/c mice, single i.v., Conjugate 1 0.3 mg/kg, IL-15 0.5 mg/kg (Example 16)
[5] = mice, blood, single dose 0.3 mg/kg

mono-mPEG-SBA40K-IL-15 [Conjugate 1]
reduction in potency when compared to IL-15 ([1]; EC50 CTLL-2 pSTAT5): two-fold | EC50 (ng/mL) CTLL-2 pSTAT5 [1]: 0.62 ng/mL | half-life ([2]; Balb/c mice, single i.v. 10-1000 μg/kg (Example 23)): approximately 14 hours | half-life [2, 4]: approximately 12 hours | Granzyme B percent positivity in blood NK cells ([3]; Balb/c mice, 0.03 and 0.3 mg/kg (Example 18)): induced significant increases in NK Granzyme B expression | CD4 T cell numbers and % Ki-67 ([3]; Balb/c mice, single i.v. 0.03 or 0.3 mg/kg, compared to CD8 and NK cells): relatively small increase in numbers and % Ki-67 expression | percent of NK cells positive for Granzyme B expression ([3]; mice, 0.01-1.5 mg/kg, 24 to 240 hours (Example 15)): increases NK-cell Granzyme B expression | duration of increase in NK cell number ([3]; mice, all dose levels): at least 96 hours | duration of increase in % Ki67 ([3]; mice, all dose levels, compared to vehicle): at least 120 hours | increase in CD8 Tcm cell numbers [3, 5]: 37.9 X | increase in CD8 Tem cell numbers [3, 5]: 14.5 X | increase in CD8 cell numbers [3, 5]: 6.4 X | duration of increase of NK cells in all maturation sub-populations ([3]; mice, i.v., Example 11): at least 120 hours | duration of increase in NK cell number ([3]; mice, medium and high dose levels): at least 144 hours | duration of increase in % Ki67 ([3]; mice, medium dose ranges (0.1 mg/kg and 0.3 mg/kg)): at least 144 hours | increase in CD8 Tcm cell numbers ([3]; mice, repeated dosing Q7dx3): 183 X | increase in CD8 Tem cell numbers ([3]; mice, repeated dosing Q7dx3): 73.8 X | increase in CD8 cell numbers ([3]; mice, repeated dosing Q7dx3): 35.3 X | Ki67 and Granzyme B in CD49b cells, spleen ([3]; mice, single dose): dose-dependent increase in both Ki67 and Granzyme B | Ki-67 in effector and central memory CD8 T cells, blood ([3]; mice, single dose): dose-dependent increase in both effector and central memory CD8 T cells | dose levels inducing a significant increase in total CD8 T cells in the blood ([3]; mice, single dose): ≥ 0.03 mg/kg | NK cell numbers ([3]; mice, single dose 0.01 to 1.5 mg/kg): increase significantly above vehicle control at all dose levels | CD8 and CD8 memory T cell numbers at end of time course ([3]; mice, single dose 0.3-1.5 mg/kg): did not return to baseline at 240 hours post injection | NKG2D and Granzyme B expression (MFI) by NK cells ([3]; mice, single i.v. 0.03, 0.3, 1 mg/kg vs vehicle): sustained increase in both NKG2D and Granzyme B | time increased CD8 cell numbers were maintained compared to vehicle ([3]; mice, single iv injection): at least 240 hours

IL-15: recombinant human IL-15 from E. coli, SEQ ID NO: 1, non-glycosylated, 12.9 kDa; unconjugated comparator
EC50 (ng/mL) CTLL-2 pSTAT5 [1]: 0.27 ng/mL | half-life [2, 4]: less than 1 hours | plasma levels following administration ([2]; mice, single i.v. dose): rapid drop in plasma levels; also recorded: rapidly cleared | Ki67 and Granzyme B in CD49b cells, spleen ([3]; mice, single dose): does not
